Reference: DBAASP
Converted amounts (≈) assume the structure as drawn. “And” between values parts separate entries of the source, which are not always exact repeats. Identical values can stand only once. Values belong to the compound of their own block, whether it stands above or below them.

Assays:
Test in all cases: ≥ marks a high value that may be exact or a test limit, other limits are often not marked, values filed in µg/mL are converted to µM
[1] = system: Staphylococcus xylosus BCRC 12930
[2] = system: Vibrio parahaemolyticus BCRC 10806
[3] = system: Klebsiella oxytoca BCRC 13985
[4] = system: Streptococcus equinus BCRC 14729
[5] = system: Listeria monocytogenes BCRC 14845
[6] = system: Vibrio anguillarum serotype O1
Vibrio alginolyticus = system: Vibrio alginolyticus
Streptococcus iniae = system: Streptococcus iniae
[7] = system: Pseudomonas aeruginosa BCRC 10944
Lactococcus garvieae = system: Lactococcus garvieae
[8] = system: Klebsiella aerogenes BCRC 10370
[9] = system: Yersinia enterocolitica BCRC 13999
[10] = system: Enterobacter cloacae BCRC 10401
[11] = system: Staphylococcus aureus BCRC 10781
[12] = system: Staphylococcus aureus BCRC 10780
Vibrio parahaemolyticus = system: Vibrio parahaemolyticus
[13] = system: Vibrio alginolyticus BCRC 12829
Vibrio harveyi = system: Vibrio harveyi
[14] = system: Escherichia coli BCRC 10675
[15] = system: Candida albicans ATCC 900280
[16] = system: Staphylococcus aureus T7/5
[17] = system: Staphylococcus aureus ATCC 25923
[18] = system: Clostridium tertium ATCC 19465
[19] = system: Staphylococcus epidermidis RP62A
[20] = system: Prevotella melaninogenica
[21] = system: Escherichia coli ATCC 25726
[22] = system: Pseudomonas aeruginosa ATCC 27853
[23] = system: Klebsiella pneumoniae KK3 9904
[24] = system: Staphylococcus aureus NCTC 8325
[25] = system: Peptoniphilus asaccharolyticus ATCC 29743
Bacteroides fragilis = system: Bacteroides fragilis
[26] = system: Bacteroides fragilis ATCC 25285
[27] = system: Clostridium perfringens ATCC 10543
[28] = system: Escherichia coli ATCC 25922
Cutibacterium acnes = system: Cutibacterium acnes
[29] = system: Salmonella enterica subsp. enterica serovar Typhimurium LT2
[30] = system: Fusobacterium varium ATCC 27725
Clostridium septicum = system: Clostridium septicum
[31] = system: Enterobacter cloacae HNTCC 53001
[32] = system: Proteus mirabilis ATCC 25933
[33] = system: Peptostreptococcus anaerobius
[34] = system: Candida albicans ATCC 90028
Fusobacterium nucleatum = system: Fusobacterium nucleatum
[35] = system: Cutibacterium acnes ATCC 11828
[36] = system: Enterococcus faecalis ATCC 29212
[37] = system: Batrachochytrium dendrobatidis

MIC [1]: 29.1 µM
MIC [3]: ≥ 58.2 µM
MIC [4]: ≥ 58.2 µM
MIC [5]: ≥ 58.2 µM
MIC [6]: 7.27 µM
MIC (Vibrio alginolyticus): 7.27 µM
MIC (Streptococcus iniae): ≥ 58.2 µM
MIC [7]: 29.1 µM
MIC (Lactococcus garvieae): ≥ 116 µM
MIC [8]: 14.5 µM
MIC [9]: ≥ 116 µM
MIC [10]: 7.27 µM
MIC [11]: 29.1 µM
MIC [12]: 29.1 µM
MIC [13]: ≥ 58.2 µM
MIC (Vibrio harveyi): 7.27 µM
MIC [14]: 14.5 µM
SMILES: CC[C@H](C)[C@H](NC(=O)[C@H](CCCCN)NC(=O)[C@H](CCCCN)NC(=O)[C@H](C)NC(=O)[C@H](Cc1ccccc1)NC(=O)[C@@H](NC(=O)[C@H](C)NC(=O)[C@H](CC(C)C)NC(=O)[C@H](CCCCN)NC(=O)[C@H](CCCCN)NC(=O)[C@H](C)NC(=O)[C@H](C)NC(=O)[C@H](CC(N)=O)NC(=O)[C@H](C)NC(=O)CN)[C@@H](C)O)C(=O)N[C@@H](Cc1ccccc1)C(=O)N[C@H](C(=O)N[C@@H](C)C(=O)N[C@@H](Cc1ccc(O)cc1)C(=O)N[C@@H](Cc1c[nH]c2ccccc12)C(=O)O)[C@@H](C)O [GANAAKKLATFAKKIFTAYW]
MIC [2]: ≥ 58.2 µM
MIC (Vibrio parahaemolyticus): 7.27 µM

MIC [15]: 16 µM (≈ 25.1 µg/mL)
MIC [16]: 10 µM (≈ 15.7 µg/mL)
MIC [17]: 8 µM (≈ 12.5 µg/mL)
MIC [18]: 3 µM (≈ 4.7 µg/mL)
MIC [19]: 4 µM (≈ 6.26 µg/mL)
MIC [20]: 12.5 µM (≈ 19.6 µg/mL)
MIC [21]: ≥ 32 µM
MIC [22]: 32 µM (≈ 50.1 µg/mL)
MIC [23]: ≥ 32 µM
MIC [24]: 6.32 µM (≈ 9.9 µg/mL)
MIC [25]: 25 µM (≈ 39.1 µg/mL)
MIC (Bacteroides fragilis): ≥ 50 µM
MIC [26]: ≥ 50 µM
MIC [27]: 6 µM (≈ 9.4 µg/mL)
MIC [28]: 20 µM (≈ 31.3 µg/mL)
MIC (Cutibacterium acnes): 6 µM (≈ 9.4 µg/mL)
MIC [29]: ≥ 32 µM
MIC [30]: ≥ 50 µM
MIC (Clostridium septicum): 12.5 µM (≈ 19.6 µg/mL)
MIC [31]: ≥ 32 µM
MIC [32]: ≥ 128 µM
MIC [33]: 12.5 µM (≈ 19.6 µg/mL)
MIC [34]: ≥ 40 µM and 25 µM
MIC (Fusobacterium nucleatum): 25 µM (≈ 39.1 µg/mL)
MIC [35]: 6 µM (≈ 9.4 µg/mL)
MIC [36]: 16 µM (≈ 25.1 µg/mL)
SMILES: CC[C@H](C)[C@H](NC(=O)[C@H](CCCCN)NC(=O)[C@H](CCCCN)NC(=O)[C@H](C)NC(=O)[C@H](CC(C)C)NC(=O)[C@H](CC(N)=O)NC(=O)[C@@H](NC(=O)[C@H](CC(C)C)NC(=O)[C@@H](NC(=O)CNC(=O)[C@H](CC(C)C)NC(=O)[C@H](Cc1ccccc1)NC(=O)[C@@H](N)Cc1cnc[nH]1)[C@@H](C)O)C(C)C)C(=O)N[C@@H](CC(C)C)C(N)=O [HFLGTLVNLAKKIL]

MIC [37]: ≥ 50 µM
SMILES: CC[C@H](C)[C@H](NC(=O)CN)C(=O)N[C@@H](CCSC)C(=O)N[C@@H](CC(=O)O)C(=O)N[C@@H](CO)C(=O)N[C@H](C(=O)N[C@@H](CCCCN)C(=O)NCC(=O)N[C@@H](C)C(=O)N[C@@H](C)C(=O)N[C@@H](CCCCN)C(=O)N[C@@H](CCC(=O)O)C(=O)N[C@H](C(=O)N[C@@H](C)C(=O)NCC(=O)N[C@@H](Cc1cnc[nH]1)C(=O)N[C@@H](CC(C)C)C(=O)N[C@@H](CC(C)C)C(=O)N[C@@H](CC(=O)O)C(=O)N[C@@H](CC(N)=O)C(=O)N[C@@H](CC(C)C)C(=O)N[C@@H](CCCCN)C(=O)N[C@H]1CSSC[C@@H](C(=O)O)NC(=O)CNC(=O)[C@H]([C@@H](C)O)NC(=O)[C@H]([C@@H](C)CC)NC(=O)[C@H](CCCCN)NC1=O)[C@@H](C)CC)[C@@H](C)CC [GIMDSIKGAAKEIAGHLLDNLKCKITGC]
